Experimental data published in patent US20130289070A1, “Use of Levocabastine for Modulating Generation of Pro-Inflammatory Cytokines” (Bausch & Lomb Incorporated, priority 2007, published 2013).

Test system: EoL-1 (human eosinophilic leukaemia cell line) cells
Assay: TNF-α-induced cytokine release, non-differentiated EoL-1 cells (NO PMA) (Luminex)
Format: cell-based
Parameters: key to Fractalkine (NO PMA), p of decrement / IL-1α (NO PMA), p of decrement / IL-1β (NO PMA), p of decrement / IL-1ra (NO PMA), p of decrement / IL-5 (NO PMA), p of decrement / IL-7 (NO PMA), p of decrement / IL-8 (NO PMA), p of decrement / IP-10 (NO PMA), p of decrement / MCP-1 (NO PMA), p of decrement / MIP-1β (NO PMA), p of decrement / VEGF (NO PMA), p of decrement: ns = non significant
Protocol: EoL-1 (human eosinophilic leukaemia cell line) cells (Saito et al., 1985; Mayumi, 1992) were maintained in RPMI-1640 medium with L-glutamine supplemented with 10% (v/v) FBS at 37° C. in a humidified atmosphere with 5% CO2. Where indicated, 24 h before the experiment 25 ng/mL PMA ((phorbol 12-myristate 13-acetate, purchased from Sigma Aldrich) was added to the medium to induce eosinophil granulation and differentiation (Ohtsu et al., 1993; Zimmermann et al., 2000).
Half-million cells were aliquoted per point in a 24 well plate; each experiment was performed in triplicate and carried out in parallel with eosinophils differentiated and non differentiated with PMA (25 ng/mL, 24 h). Cells were suspended in low serum medium (RPMI-1640, 0.1% (v/v) FBS). TNF-α was used to induce cytokine secretion as previously described by Steube et al. (2000), and the net release was obtained by comparison to the basal (non-TNF-α treated). In the first experiment we evaluated the concentration and time relation between TNF-α stimulation and cytokine release. Therefore, 5, 10, and 25 ng/mL of TNF-α was administered to the cells at 0, ½, 1, 2, 3, 6, 12 and 24 h (data not shown). An aliquot of 150 μL of supernate was collected for cytokines' analysis. […] Differentiated and non-differentiated EoL-1 cells were exposed from 0.1 to 2.3 mM levocabastine ([…]Levocabastine 0.05% solution eye drops containing cyclodextrins, without benzalkonium chloride), and aliquots of the supernates were collected after 12 and 24 h. The content of cytokines at time zero was estimated by treating the cells with 400 nM calcimycin (A-23187), which is a cytolytic agent that frees all the mediators from the cytoplasmic compartment. In addition, for each experiment we tested the effect of the vehicle, which was added to the wells in a concentration equal to the maximum amount used for drug dilution.
Samples (supernates 12 and 24 h) in triplicate were analyzed using Luminex 200™ (Luminex, Austin, Tex.) and Beadview software v1.0 (Upstate Cell Signaling Solutions, Temecula, Calif.).
All data are presented as mean±SEM for the indicated number of experiments. Statistical significance was determined by Newman-Keuls test after ANOVA using GraphPad Prism (version 3.0; GraphPad Software Inc., San Diego, Calif., USA). P-values<0.05 were considered to be significant.

[1] = 12 h, TNF-α 5 ng + Levocabastine 2 mM vs TNF-α
[2] = 12 h, TNF-α 10 ng + Levocabastine 2 mM vs TNF-α
[3] = 12 h, TNF-α 20 ng + Levocabastine 2 mM vs TNF-α
[4] = 12 h, TNF-α 5, 10, 20 ng + Levocabastine 2 mM vs TNF-α

SMILES: C[C@@H]1CN([C@H]2CC[C@](C#N)(c3ccc(F)cc3)CC2)CC[C@]1(C(=O)O)c1ccccc1 [Levocabastine, levocabastine]
- release of IL-1-ra induced by TNF-α (2 mM, TNF-α 10 ng, 24 h, not exposed to PMA, not influenced by VCAM-1 or fibronectin (FIG. 11)): effective in reducing the release
- release of IL-6 induced by TNF-α (2 mM, TNF-α 10 ng, 24 h, not exposed to PMA, not influenced by VCAM-1 or fibronectin (FIG. 12)): effective in reducing the release
- release of IL-8 induced by TNF-α (2 mM, TNF-α 10 ng, 24 h, not exposed to PMA, not influenced by VCAM-1 or fibronectin (FIG. 13)): effective in reducing the release
- release of IL-12-P40 induced by TNF-α (2 mM, TNF-α 5, 10 and 20 ng, 24 h, without PMA (FIG. 7)): capable of reducing the release
- GM-CSF (NO PMA), p of decrement [1]: ns
- IL-1β (NO PMA), p of decrement [1]: ns
- IL-5 (NO PMA), p of decrement [1]: ns
- IL-6 (NO PMA), p of decrement [1]: ns
- IL-7 (NO PMA), p of decrement [1]: ns
- IL-8 (NO PMA), p of decrement [1]: ns
- IL-10 (NO PMA), p of decrement [1]: ns
- IL-12p40 (NO PMA), p of decrement [1]: P < 0.001
- MCP-1 (NO PMA), p of decrement [1]: ns
- TGF-α (NO PMA), p of decrement [1]: ns
- VEGF (NO PMA), p of decrement [1]: P < 0.01
- GM-CSF (NO PMA), p of decrement [2]: ns
- IL-1β (NO PMA), p of decrement [2]: ns
- IL-5 (NO PMA), p of decrement [2]: ns
- IL-6 (NO PMA), p of decrement [2]: ns
- IL-7 (NO PMA), p of decrement [2]: ns
- IL-8 (NO PMA), p of decrement [2]: ns
- IL-10 (NO PMA), p of decrement [2]: ns
- IL-12p40 (NO PMA), p of decrement [2]: P < 0.001
- MCP-1 (NO PMA), p of decrement [2]: ns
- TGF-α (NO PMA), p of decrement [2]: ns
- VEGF (NO PMA), p of decrement [2]: P < 0.01
- GM-CSF (NO PMA), p of decrement [3]: ns
- IL-1β (NO PMA), p of decrement [3]: ns
- IL-5 (NO PMA), p of decrement [3]: ns
- IL-6 (NO PMA), p of decrement [3]: ns
- IL-7 (NO PMA), p of decrement [3]: ns
- IL-8 (NO PMA), p of decrement [3]: ns
- IL-10 (NO PMA), p of decrement [3]: ns
- IL-12p40 (NO PMA), p of decrement [3]: P < 0.001
- MCP-1 (NO PMA), p of decrement [3]: ns
- TGF-α (NO PMA), p of decrement [3]: ns
- VEGF (NO PMA), p of decrement [3]: P < 0.05
- Fractalkine (NO PMA), p of decrement [4]: increase of cytokine secretion
- G-CSF (NO PMA), p of decrement [4]: increase of cytokine secretion
- IL-1ra (NO PMA), p of decrement [4]: increase of cytokine secretion
- IL-1α (NO PMA), p of decrement [4]: increase of cytokine secretion
- IP-10 (NO PMA), p of decrement [4]: increase of cytokine secretion
- MIP-1α (NO PMA), p of decrement [4]: increase of cytokine secretion
- MIP-1β (NO PMA), p of decrement [4]: increase of cytokine secretion
- RANTES (NO PMA), p of decrement [4]: increase of cytokine secretion
- Fractalkine (NO PMA), p of decrement (12 h, TNF-α vs Lev 0.1 mM): ns
- IL-1ra (NO PMA), p of decrement (12 h, TNF-α vs Lev 0.1 mM): ns
- IL-1α (NO PMA), p of decrement (12 h, TNF-α vs Lev 0.1 mM): ns
- IL-1β (NO PMA), p of decrement (12 h, TNF-α vs Lev 0.1 mM): ns
- IL-5 (NO PMA), p of decrement (12 h, TNF-α vs Lev 0.1 mM): ns
- IL-7 (NO PMA), p of decrement (12 h, TNF-α vs Lev 0.1 mM): ns
- IL-8 (NO PMA), p of decrement (12 h, TNF-α vs Lev 0.1 mM): ns
- IP-10 (NO PMA), p of decrement (12 h, TNF-α vs Lev 0.1 mM): ns
- MCP-1 (NO PMA), p of decrement (12 h, TNF-α vs Lev 0.1 mM): ns
- MIP-1β (NO PMA), p of decrement (12 h, TNF-α vs Lev 0.1 mM): ns
- VEGF (NO PMA), p of decrement (12 h, TNF-α vs Lev 0.1 mM): ns
- Fractalkine (NO PMA), p of decrement (12 h, TNF-α vs Lev 0.5 mM): ns
- IL-1ra (NO PMA), p of decrement (12 h, TNF-α vs Lev 0.5 mM): ns
- IL-1α (NO PMA), p of decrement (12 h, TNF-α vs Lev 0.5 mM): ns
- IL-1β (NO PMA), p of decrement (12 h, TNF-α vs Lev 0.5 mM): ns
